Test results taken from paper PMC8398451, “Molecular Engineering of Curcumin, an Active Constituent of Curcuma longa L. (Turmeric) of the Family Zingiberaceae with Improved Antiproliferative Activity” (Plants, 2021).
Like-named read-outs stand apart in the source and are kept apart here.

Assays:
Leukemia cell line panel = assay: NCI antiproliferative assay, panel summary; format: cell-based, Human; conditions: for GI50: Homo sapiens
CCRF-CEM = assay: NCI antiproliferative SRB assay, Leukemia panel; format: cell-based, Human
SK-OV-3 = assay: NCI antiproliferative SRB assay, Ovarian Cancer panel; format: cell-based, Human
[1] = test system: Colon Cancer cell line panel; assay: NCI antiproliferative assay, panel summary; format: cell-based, Human
DU-145 = assay: NCI antiproliferative SRB assay, Prostate Cancer panel; format: cell-based, Human
MOLT-4 = assay: NCI antiproliferative SRB assay, Leukemia panel; format: cell-based, Human
RXF 393 = assay: NCI antiproliferative SRB assay, Renal Cancer panel; format: cell-based, Human
[2] = test system: CNS Cancer cell line panel; assay: NCI antiproliferative assay, panel summary; format: cell-based, Human
SNB-75 = assay: NCI antiproliferative SRB assay, CNS Cancer panel; format: cell-based, Human
MALME-3M = assay: NCI antiproliferative SRB assay, Melanoma panel; format: cell-based, Human
HOP-62 = assay: NCI antiproliferative SRB assay, Non-Small Cell Lung Cancer panel; format: cell-based, Human
HCT-116 = assay: NCI antiproliferative SRB assay, Colon Cancer panel; format: cell-based, Human
RPMI-8226 = assay: NCI antiproliferative SRB assay, Leukemia panel; format: cell-based, Human
HS 578T = assay: NCI antiproliferative SRB assay, Breast Cancer panel; format: cell-based, Human
A549/ATCC = assay: NCI antiproliferative SRB assay, Non-Small Cell Lung Cancer panel; format: cell-based, Human
UACC-257 = assay: NCI antiproliferative SRB assay, Melanoma panel; format: cell-based, Human
MCF7 = assay: NCI antiproliferative SRB assay, Breast Cancer panel; format: cell-based, Human
BT-549 = assay: as above; format: cell-based, Human
ACHN = assay: NCI antiproliferative SRB assay, Renal Cancer panel; format: cell-based, Human
[3] = test system: Prostate Cancer cell line panel; assay: NCI antiproliferative assay, panel summary; format: cell-based, Human
TK-10 = assay: NCI antiproliferative SRB assay, Renal Cancer panel; format: cell-based, Human
NCI-H522 = assay: NCI antiproliferative SRB assay, Non-Small Cell Lung Cancer panel; format: cell-based, Human
A498 = assay: NCI antiproliferative SRB assay, Renal Cancer panel; format: cell-based, Human
MDA-MB-435 = assay: NCI antiproliferative SRB assay, Melanoma panel; format: cell-based
[4] = Homo sapiens, 5-dose 0.01-100 µM
[5] = Homo sapiens, 5-dose 0.01-100 µM, read-out: LC50 (the source's name)
[6] = Homo sapiens, 5-dose assay, read-out: Sub Panel MID b (mean GI50 of panel)

## COc1ccc(NC(=O)n2nc(/C=C/c3ccc(O)c(OC)c3)cc2/C=C/c2ccc(O)c(OC)c2)cc1 [3b]
Leukemia cell line panel; 10 µM
  Mean % GI: 88.02%
Leukemia cell line panel; 5-dose assay
  Selectivity Ratio (MID a:MID b): 1.89
Leukemia cell line panel; 5-dose assay, read-out: GI50 values, range over the leukemia panel
  GI50: 1.52 to 3.38 µM
Leukemia cell line panel; 5-dose assay, read-out: Sub Panel MID b (mean GI50 of panel)
  GI50: 2.59 µM
CCRF-CEM; 5-dose 0.01-100 µM
  TGI: 32.7 µM
CCRF-CEM; [4]
  GI50: 2.34 µM
CCRF-CEM; [5]
  CC50: > 100 µM
CCRF-CEM; one dose 10 µM
  %GI: 88.23%
  GP (growth percent): 11.77
SK-OV-3; 5-dose 0.01-100 µM
  TGI: 27.5 µM
SK-OV-3; [4]
  GI50: 3.66 µM
SK-OV-3; [5]
  CC50: > 100 µM
SK-OV-3; one dose 10 µM
  %GI: 39.26%
  GP (growth percent): 60.74
[1]; 10 µM
  Mean % GI: 60%
[1]; 5-dose assay
  Selectivity Ratio (MID a:MID b): 0.85
[1]; [6]
  GI50: 5.77 µM
DU-145; 5-dose 0.01-100 µM
  TGI: 24.6 µM
DU-145; [4]
  GI50: 3.99 µM
DU-145; [5]
  CC50: > 100 µM
DU-145; one dose 10 µM
  %GI: 72.77%
  GP (growth percent): 27.23
MOLT-4; 5-dose 0.01-100 µM
  TGI: 13.3 µM
MOLT-4; [4]
  GI50: 2.87 µM
MOLT-4; [5]
  CC50: > 100 µM
MOLT-4; one dose 10 µM
  %GI: 87.76%
  GP (growth percent): 12.24
RXF 393; 5-dose 0.01-100 µM
  TGI: 8.87 µM
RXF 393; [4]
  GI50: 3.02 µM
RXF 393; [5]
  CC50: > 100 µM
RXF 393; one dose 10 µM
  %GI: 76.99%
  GP (growth percent): 23.01
[2]; 10 µM
  Mean % GI: 67.06%
[2]; 5-dose assay
  Selectivity Ratio (MID a:MID b): 1.28
[2]; [6]
  GI50: 3.83 µM
SNB-75; 5-dose 0.01-100 µM
  TGI: 16.3 µM
SNB-75; [4]
  GI50: 2.35 µM
SNB-75; [5]
  CC50: > 100 µM
SNB-75; one dose 10 µM
  %GI: 67.39%
  GP (growth percent): 32.61
MALME-3M; 5-dose 0.01-100 µM
  TGI: 38.6 µM
MALME-3M; [4]
  GI50: 3.66 µM
MALME-3M; [5]
  CC50: > 100 µM
MALME-3M; one dose 10 µM
  %GI: 48.14%
  GP (growth percent): 51.86
HOP-62; 5-dose 0.01-100 µM
  TGI: 42.8 µM
HOP-62; [4]
  GI50: 3.65 µM
HOP-62; [5]
  CC50: > 100 µM
HOP-62; one dose 10 µM
  %GI: 67.25%
  GP (growth percent): 32.75
HCT-116; 5-dose 0.01-100 µM
  TGI: 42.9 µM
HCT-116; [4]
  GI50: 3.22 µM
HCT-116; [5]
  CC50: > 100 µM
HCT-116; one dose 10 µM
  %GI: 90.87%
  GP (growth percent): 9.13
RPMI-8226; 5-dose 0.01-100 µM
  TGI: 29.2 µM
RPMI-8226; [4]
  GI50: 3.38 µM
RPMI-8226; [5]
  CC50: > 100 µM
RPMI-8226; one dose 10 µM
  %GI: 78.70%
  GP (growth percent): 21.30
HS 578T; 5-dose 0.01-100 µM
  TGI: 61.9 µM
HS 578T; [4]
  GI50: 6.77 µM
HS 578T; [5]
  CC50: > 100 µM
HS 578T; one dose 10 µM
  %GI: 71.29%
  GP (growth percent): 28.71
A549/ATCC; 5-dose 0.01-100 µM
  TGI: 97.9 µM
A549/ATCC; [4]
  GI50: 5.5 µM
  LC50 (50% lethal concentration): > 100 µM
A549/ATCC; one dose 10 µM
  %GI: 72.71%
  GP (growth percent): 27.29
UACC-257; 5-dose 0.01-100 µM
  TGI: 64.8 µM
UACC-257; [4]
  GI50: 16.7 µM
UACC-257; [5]
  CC50: > 100 µM
UACC-257; one dose 10 µM
  %GI: 24.78%
  GP (growth percent): 75.22
MCF7; 5-dose 0.01-100 µM
  TGI: 17.0 µM
MCF7; [4]
  GI50: 3.3 µM
MCF7; [5]
  CC50: > 100 µM
MCF7; one dose 10 µM
  %GI: 84.37%
  GP (growth percent): 15.63
BT-549; 5-dose 0.01-100 µM
  TGI: 29.5 µM
BT-549; [4]
  GI50: 2.49 µM
BT-549; [5]
  CC50: > 100 µM
BT-549; one dose 10 µM
  %GI: 68.63%
  GP (growth percent): 31.37
ACHN; 5-dose 0.01-100 µM
  TGI: >100 µM
ACHN; [4]
  GI50: 4.18 µM
ACHN; [5]
  CC50: > 100 µM
ACHN; one dose 10 µM
  %GI: 77.93%
  GP (growth percent): 26.03
[3]; 10 µM
  Mean % GI: 72.17%
[3]; 5-dose assay
  Selectivity Ratio (MID a:MID b): 1.07
[3]; [6]
  GI50: 4.55 µM
TK-10; 5-dose 0.01-100 µM
  TGI: 95.3 µM
TK-10; [4]
  GI50: 10.2 µM
TK-10; [5]
  CC50: > 100 µM
TK-10; one dose 10 µM
  %GI: 36.16%
  GP (growth percent): 63.84
NCI-H522; 5-dose 0.01-100 µM
  TGI: 12.7 µM
NCI-H522; [4]
  GI50: 1.76 µM
NCI-H522; [5]
  CC50: > 100 µM
NCI-H522; one dose 10 µM
  %GI: 113.52%
  GP (growth percent): −13.52
A498; 5-dose 0.01-100 µM
  TGI: 56.4 µM
A498; [4]
  GI50: 17.2 µM
A498; [5]
  CC50: > 100 µM
A498; one dose 10 µM
  %GI: 17.53%
  GP (growth percent): 82.47
MDA-MB-435; 5-dose 0.01-100 µM
  TGI: 4.68 µM
MDA-MB-435; Homo sapiens
  GI50: 1.25 µM
MDA-MB-435; [5]
  CC50: > 100 µM
MDA-MB-435; one dose 10 µM
  %GI: 136.25%
  GP (growth percent): −36.25
